From patent US9309238B2, “Imidazo [1,2-a]pyridine compounds, synthesis thereof, and methods of using same” (priority 2009, dated 2016)
Values after ≈ are worked out from the molar mass of the structure shown. Values joined by “and” are separate entries in the source; they are usually repeats but may differ in a detail not shown here. Identical values can stand only once. Like-named read-outs stand apart in the source and are kept apart here.

Experiments:
M. avium = assay: NTM activity, M. avium; format: cell-based
M. chelonae = assay: NTM activity, M. chelonae; format: cell-based
M. kansasii = assay: NTM activity, M. kansasii; format: cell-based
M. bovis BCG = assay: NTM activity, M. bovis BCG; format: cell-based
M. marinum = assay: NTM activity, M. marinum; format: cell-based
MDR-TB [1] = conditions: current TB clinical candidates; cited from earlier work
H37Rv TB [2] = conditions: current TB clinical candidates; cited from earlier work
TB = conditions: strain not stated; cited from earlier work
MDR-TB [3] = assay: MIC against MDR-TB (Table 1); format: cell-based; conditions: Mycobacterium tuberculosis
M. smegmatis = assay: cross screen against M. smegmatis; format: cell-based; conditions: Mycolicibacterium smegmatis
[4] = system: VERO cells (African Green Monkey epithelial kidney cells); assay: VERO cellular toxicity assay; format: cell-based; conditions: Chlorocebus sabaeus
H37Rv TB [5] = assay: in vitro activity against H37Rv TB (MIC); format: cell-based; conditions: Mycobacterium tuberculosis
[6] = system: panel of diverse organisms (Gram-positive and Gram-negative strains, yeast, fungi, cancer cell lines, VERO cell line); assay: screen against a panel of diverse control organisms and cell lines; format: cell-based; conditions: B. subtilis, S. aureus, MRSA, VRE E. faecalis, E. coli, P. aeruginosa, S. salmonicolor, C. albicans, P. notatum, Huvec, K-562, HeLa, PC-3, MCF-7, VERO
Text: In embodiments, compounds ND-8448, ND-8451 and ND-8454 were all screened against a panel of diverse organisms which included four Gram-positive strains (Bacillus subtilis, Staphylococcus aureus, MRSA Staphylococcus aureus, VRE Enterococcus Faecalis), two Gram-negative strains (E. coli, Pseudomonas aeruginosa), a yeast (Sporobolomyces salmonicolor) and fungi (Candida albicans and Penicillium notatum), as well as five cancer cell lines (Huvec, K-562, HeLa, PC-3 and MCF-7) and the VERO cell line to check for mammalian toxicity.

HeLa cells = assay: toxicity to HeLa cells; format: cell-based
[7] = Mycobacterium tuberculosis variant bovis BCG, BCG

SMILES	MIC90 (M. avium) [µM]	MIC90 (M. chelonae) [µM]	MIC90 (M. kansasii; M. kansasii) [µM]	MIC90 (M. bovis BCG; M. bovis BCG) [µM]	MIC90 (M. marinum) [µM]	also measured
CC[C@@H](CO)NCCN[C@@H](CC)CO [EMB, reference compound]	>2000	>2000	<7.813	<7.813	965.56 (≈ 197 µg/mL)	–
COc1c(N2CCNC(C)C2)c(F)cc2c(=O)c(C(=O)O)cn(C3CC3)c12 (stereo not shown) [Gatifloxacin]	–	–	–	–	–	MIC (MDR-TB [1]): MIC = 3.12 μg/mL MDR-TB; MIC (H37Rv TB [2]): MIC = 0.03-1.56 μg/mL H37Rv TB
NNC(=O)c1ccncc1 [INH, Isoniazid, reference compound]	–	–	–	–	–	MIC90 (M. avium; Mycobacterium avium): > 500 µM; MIC90 (M. chelonae; Mycobacteroides chelonae): > 500 µM; MIC90 (M. kansasii; Mycobacterium kansasii): 5.82 µM (≈ 0.798 µg/mL); MIC90 (M. bovis BCG; [7]): < 1.95 µM; MIC90 (M. marinum; Mycobacterium marinum): > 500 µM
Cc1c(CN2CCN(c3cccc(C(F)(F)F)c3)CC2)cc(-c2ccccc2)n1NC(=O)c1ccncc1 [LL-3858]	–	–	–	–	–	MIC (TB): MIC = 0.06 μg/mL
Cc1ccn2c(C(=O)NCc3ccccc3)c(C)nc2c1 [ND-8454, N-benzyl-2,7-dimethylimidazo[1,2-a]pyridine-3-carboxamide]	–	–	–	–	–	MIC90 (M. avium; Mycobacterium avium): 1.32 µM (≈ 0.369 µg/mL); MIC (MDR-TB [3]): 0.02 µg/mL (≈ 0.0716 µM); MIC90 (M. chelonae; Mycobacteroides chelonae): > 50 µM; MIC90 (M. kansasii; Mycobacterium kansasii): 1.32 µM (≈ 0.369 µg/mL); MIC90 (M. smegmatis): ≥ 5 µg/mL; MIC90 (M. bovis BCG; [7]): 0.33 µM (≈ 0.0922 µg/mL); IC50 [4]: > 128 µM; MIC (H37Rv TB [5]): 0.08 µg/mL and 0.286 µM; MIC90 (M. marinum; Mycobacterium marinum): > 50 µM; activity against control organisms [6]: inactive; toxicity to HeLa cells (HeLa cells): > 50 µM
Cc1ccn2c(C(=O)NCc3cccc(F)c3)c(C)nc2c1 [ND-9361]	–	–	–	–	–	MIC90 (M. smegmatis): ≥ 5 µg/mL
Cc1ccn2c(C(=O)NCc3ccc(Oc4ccc(F)cc4)cc3)c(C)nc2c1 [ND-9758]	<0.195	6.07 (≈ 2.36 µg/mL)	<0.195	<0.195	5.21 (≈ 2.03 µg/mL)	–
Cc1ccn2c(C(=O)NCc3cccc(OC(C)C)c3)c(C)nc2c1 [ND-9872]	0.71 (≈ 0.24 µg/mL)	>50	0.71 (≈ 0.24 µg/mL)	<0.195	>50	–
Cc1ccn2c(C(=O)NCc3ncc(C(F)(F)F)cc3Cl)c(C)nc2c1 [ND-9902]	4.42 (≈ 1.69 µg/mL)	>50	4.42 (≈ 1.69 µg/mL)	0.75 (≈ 0.287 µg/mL)	>50	–
Cc1ccc2nc(C)c(C(=O)NCc3ccc(S(C)(=O)=O)cc3)n2c1 [ND-9965]	6.03 (≈ 2.16 µg/mL)	>50	6.03 (≈ 2.16 µg/mL)	0.23 (≈ 0.0822 µg/mL)	>50	–
C[C@]1(COc2ccc(N3CCC(Oc4ccc(OC(F)(F)F)cc4)CC3)cc2)Cn2cc([N+](=O)[O-])nc2O1 [OPC-67683]	–	–	–	–	–	MIC (MDR-TB [1]): MIC of 0.006-0.024 μg/mL; MIC (H37Rv TB [2]): MIC of 0.006-0.024 μg/mL
COc1nc2ccc(Br)cc2cc1[C@@H](c1ccccc1)[C@@](O)(CCN(C)C)c1cccc2ccccc12 [TMC207]	–	–	–	–	–	MIC (MDR-TB [1]): MIC = 0.06 μg/mL vs. H37Rv and MDR-TB; MIC (H37Rv TB [2]): MIC = 0.06 μg/mL vs. H37Rv and MDR-TB
